For series [1] the following is noted: commercially available; cited from earlier work.
Series [2] is described as follows: pH of amikacin starting materials. It is filed as physicochemical. The note with it: amikacin base, before neutralization.
For series [3] the following is noted: cited from earlier work.
For series [4], the system named is Staphylococcus aureus. As to the kind of experiment: Predicted lung concentration relative to MIC90, Staphylococcus aureus. The format is in vivo. On the procedure:
(§1) In clinical use, concentration of the aminoglycoside and fosfomycin are delivered to yield a concentration in the lungs that is MIC90 for the target organism. For amikacin, about […] of amikacin chloride and about […] of fosfomycin disodium are delivered to the lung (50 mg amikacin chloride and 20 mg fosfomycin in solution) using a nebulizer with an expected 15% delivery efficiency.

The conditions of series [5]: in vivo. The protocol:
as §1

Series [6] deals with Staphylococcus aureus. The note with it: cited from earlier work.
For the next series, the system named is pseudomonas. The note with it: approximately 20 mg delivered to the lung, co-infected patients; cited from earlier work.
Series [7] has as its system highly resistant Gram-negative organisms. Put plainly: Predicted lung concentration relative to MIC90, Gram-negative organisms. The note with it: most highly resistant Gram-negative organisms. It is filed as in vivo. On the procedure:
as §1

For the compound `NCC[C@H](O)C(=O)N[C@@H]1C[C@H](N)[C@@H](O[C@H]2O[C@H](CN)[C@@H](O)[C@H](O)[C@H]2O)[C@H](O)[C@H]1O[C@H]1O[C@H](CO)[C@@H](O)[C@H](N)[C@H]1O.O=S(=O)(O)O.O=S(=O)(O)O` [amikacin sulfate], in series [1], the “starting pH” value is 3.5-5.5.
On to `NCC[C@H](O)C(=O)N[C@@H]1C[C@H](N)[C@@H](O[C@H]2O[C@H](CN)[C@@H](O)[C@H](O)[C@H]2O)[C@H](O)[C@H]1O[C@H]1O[C@H](CO)[C@@H](O)[C@H](N)[C@H]1O` [amikacin], for which the pH entry in series [2] is listed as “approximately 11”.
As a reminder, the pKa is the negative logarithm of the acid dissociation constant. With `NCC[C@H](O)C(=O)N[C@@H]1C[C@H](N)[C@@H](O[C@H]2O[C@H](CN)CC[C@H]2N)[C@H](O)[C@H]1O[C@H]1O[C@H](CO)[C@@H](O)[C@H](N)[C@H]1O` [arbekacin], in series [3], the pKa is on record as 10.2.
On to `C[C@@H]1O[C@@H]1P(=O)(O)O` [fosfomycin], for which the “predicted peak concentration, times the MIC90” value in the series on Staphylococcus aureus [4] was “greater than 25 times”. For the same compound, the “predicted concentration delivered to the lungs” value in series [5] is “about 5400 ug/mL”. In addition, the bacterial density entry with Staphylococcus aureus [6] (approximately 20 mg delivered to the lung, co-infected patients) was “Decreased bacterial density”; in the series on pseudomonas, “Decreased bacterial density”. For the same compound, the killing of staphylococcus entry in the series with Staphylococcus aureus [6] (estimated 40 mg delivered dose versus estimated 20 mg dose) is listed as “more efficacious”.
Consider amikacin chloride, for which, in series [5], the “predicted concentration delivered to the lungs” value was “about 13,500 ug/mL”. Besides, the “predicted lung concentration, times the MIC90” value in series [7] was “greater than 25 times”.
Turning to gentamycin, the pKa in series [3] is reported as 8.2.

Values taken from patent publication US9486462B2, “Formulations of aminoglycosides and fosfomycin in a combination having improved chemical properties” (CARDEAS PHARMA CORPORATION, priority 2013, dated 2016).
